Results reported in US20260226071A1, “2, 4-DIANILINOPYRIMIDINE-BASED AURORA-A KINASE SELECTIVE DEGRADATION INDUCING COMPOUNDS” (UPPTHERA, INC., priority 2023, published 2026).
pIC50: −log10 of the molar value.

Key:
Aurora kinase A (AURKA) = biological target: T1, Aurora kinase A (AURKA) (Homo sapiens, UniProt O14965); assay: Luciferase assay for AURKA in HeLa LgBit (AURKA-HiBit KI) cell line; type: cell-based; settings: HeLa LgBit (AURKA-HiBit KI) cells, measured after 12 hours
T1 construct: endogenous in cells; host or cells: HeLa LgBit (AURKA-HiBit KI), CRISPR/Cas9 knock-in at the endogenous AURKA locus
T1 sequence (O14965 1-403): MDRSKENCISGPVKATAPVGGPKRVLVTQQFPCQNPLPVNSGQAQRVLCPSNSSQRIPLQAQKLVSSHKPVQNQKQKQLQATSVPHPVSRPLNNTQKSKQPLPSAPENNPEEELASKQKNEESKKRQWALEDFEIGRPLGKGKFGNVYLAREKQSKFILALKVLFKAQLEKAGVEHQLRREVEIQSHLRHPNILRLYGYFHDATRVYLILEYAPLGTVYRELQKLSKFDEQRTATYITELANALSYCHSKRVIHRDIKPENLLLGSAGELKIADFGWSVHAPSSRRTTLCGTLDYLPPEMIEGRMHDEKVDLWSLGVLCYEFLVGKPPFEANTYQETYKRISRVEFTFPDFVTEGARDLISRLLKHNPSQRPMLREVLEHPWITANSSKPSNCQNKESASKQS
Summary of the method: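 Test compounds (10 nM or 100 nM) added to AURKA-HiBit knock-in HeLa LgBit cells that had been pre-loaded with Endurazine for 2 h following an 18 h culture at 3×10^4 cells. Endogenous AURKA-HiBit level followed by luminescence (470-480 nm), measured after 12 h.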

NCI-H446 cell line = assay: Cell viability assay for NCI-H446 cell line; type: cell-based; settings: Homo sapiens, NCI-H446, 120 h; H446 cells, 5 days culture, EZ-Cytox; read-out: IC50 value (Level)
From the text: The NCI-H446 (hereafter H446) cell lines were provided from American Type Culture Collection (ATCC). For cell culture, RPMI medium 1640 (Gibco, Cat. No. 22400-089; Lot. No. 2522717), FBS (Gibco, Cat. No. 16000-044; Lot. No. 2716756P), Penicillin/Streptomycin (PS) (Gibco, Cat. No. 15140-122; Lot. No. 2585636), 75T cell culture flask (SPL, Cat. No. 70075), 96 well cell culture plate (SPL, Cat. No. 30096), PBS pH 7.4 (Gibco, Cat. No. 10010-023; Lot. No. 2561466), TrypLE™ Express (Gibco, Cat. No. 12605-010; Lot. No. 2492811), counting chamber (hematocytometer) (Hirschmann, Cat. No. 8100204) and 0.4% Trypan Blue solution (DYNEBIO, Cat. No. CBT3710; Lot. No. 20231017) were used. Cells were cultured in RPMI 1640 medium supplemented with 10% FBS and 1% PS and incubated at 37° C., 5% CO2 condition in CO2 incubator (ThermoScientific, Cat. No. 4111).
For experiment, the present compounds were fully dissolved in DMSO (Sigma-Aldrich Cat. No. D2438, Lot. No. RNBL7287.
In each well of 96-well cell culture plate, […] cells of H446 cell lines were seeded in 150 μl of total medium volume. After 24 hours of cell seeding, the present compounds were treated.
The present compounds were each diluted 3-folds from the highest concentration of 1000 nM to the lowest concentration of 0.15 nM. The compound was added to each well to make the total volume of […] and the cells were cultured for 5 days in CO2 incubator (Thermo Fisher Science, Cat. No. 4111).
Thereafter, 20 μl of EZ-Cytox (DOGEN, Cat. NO. EZ-3000, Lot. No. DLS2308) was added to each well and the cells were cultured for 4 hours at the same condition in CO2 incubator. After culture, the absorbance of the sample was measured by setting the wavelength of a plate reader (BMG Labtech, CLARIOstar Plus) to […]. The samples were shaked for 2 minutes in the plate reader before measurement.

Row | SMILES | luminescence value (Level) (Aurora kinase A (AURKA); 10 nM compound) | luminescence value (Level) (Aurora kinase A (AURKA); 100 nM compound) | pIC50 (NCI-H446 cell line)
1 | CN(c1cccc(N2CCC(CN3CCN(C(=O)Cc4ccc(Nc5ncc(F)c(Nc6ccc(C(=O)Nc7ccccc7Cl)cc6)n5)cc4)CC3)CC2)c1)C1CCC(=O)NC1=O (stereo not drawn) [Compound 45, N-(2-chlorophenyl)-4-((2-((4-(2-(4-((1-(3-((2,6-dioxopiperidin-3-yl)(methyl)amino)phenyl)piperidin-4-yl)methyl)piperazin-1-yl)-2-oxoethyl)phenyl)amino)-5-fluoropyrimidin-4-yl)amino)benzamide] | C (C is 0.5 to 0.7) | B (B is 0.2 to 0.4) | 7.00 to 7.30
2 | O=C1CCC(c2ccc(N3CCN(CCC4CCN(NC(=O)c5ccc(Nc6ncc(F)c(Nc7ccc(C(=O)Nc8ccccc8Cl)cc7)n6)cc5)CC4)CC3)c(F)c2)C(=O)N1 (stereo not drawn) [Compound 48, N-(2-chlorophenyl)-4-((2-((4-((4-(2-(4-(4-(2,6-dioxopiperidin-3-yl)-2-fluorophenyl)piperazin-1-yl)ethyl)piperidin-1-yl)carbamoyl)phenyl)amino)-5-fluoropyrimidin-4-yl)amino)benzamide] | A (A is <0.3) | A (A is <0.2) | > 7.30
3 | CN(CC1CCN(c2ccc(C3CCC(=O)NC3=O)cc2)CC1)[C@H]1CC[C@H](NC(=O)c2ccc(Nc3ncc(F)c(Nc4ccc(C(=O)Nc5ccccc5Cl)cc4)n3)cc2)CC1 (stereo partly drawn) [Compound 49, N-(2-chlorophenyl)-4-((2-((4-(((1r,4r)-4-(((1-(4-(2,6-dioxopiperidin-3-yl)phenyl)piperidin-4-yl)methyl)(methyl)amino)cyclohexyl)carbamoyl)phenyl)amino)-5-fluoropyrimidin-4-yl)amino)benzamide] | A (A is <0.3) | A (A is <0.2) | > 7.30
4 | O=C1CCC(c2ccc(N3CCC(CN4CCC(NC(=O)c5ccc(Nc6ncc(F)c(Nc7ccc(C(=O)Nc8ccccc8Cl)cc7)n6)cc5)CC4)CC3)cc2)C(=O)N1 (stereo not drawn) [Compound 50, N-(2-chlorophenyl)-4-[[2-[4-[[1-[[1-[4-(2,6-dioxo-3-piperidyl)phenyl]-4-piperidyl]methyl]-4-piperidyl]carbamoyl]anilino]-5-fluoro-pyrimidin-4-yl]amino]benzamide] | B (B is 0.3 to 0.5) | A (A is <0.2) | 7.00 to 7.30
5 | O=C1CCC(c2ccc(N3CCN(C(=O)CN4CCC(NC(=O)c5ccc(Nc6ncc(F)c(Nc7ccc(C(=O)Nc8ccccc8Cl)cc7)n6)cc5)CC4)CC3)cc2)C(=O)N1 (stereo not drawn) [Compound 51, N-(2-chlorophenyl)-4-((2-((4-((1-(2-(4-(4-(2,6-dioxopiperidin-3-yl)phenyl)piperazin-1-yl)-2-oxoethyl)piperidin-4-yl)carbamoyl)phenyl)amino)-5-fluoropyrimidin-4-yl)amino)benzamide] | A (A is <0.3) | A (A is <0.2) | > 7.30
6 | O=C1CCC(c2ccc(N3CCN(CCCC4CCN(NC(=O)c5ccc(Nc6ncc(F)c(Nc7ccc(C(=O)Nc8ccccc8Cl)cc7)n6)cc5)CC4)CC3)cc2)C(=O)N1 (stereo not drawn) [Compound 52, N-(2-chlorophenyl)-4-((2-((4-((4-(3-(4-(4-(2,6-dioxopiperidin-3-yl)phenyl)piperazin-1-yl)propyl)piperidin-1-yl)carbamoyl)phenyl)amino)-5-fluoropyrimidin-4-yl)amino)benzamide] | A (A is <0.3) | A (A is <0.2) | > 7.30
7 | O=C1CCC(c2ccc(N3CCN(CCC4CCN(C(=O)Nc5ccc(Nc6ncc(F)c(Nc7ccc(C(=O)Nc8ccccc8Cl)cc7)n6)cc5)CC4)CC3)cc2)C(=O)N1 (stereo not drawn) [Compound 53, N-(4-((4-((4-((2-chlorophenyl)carbamoyl)phenyl)amino)-5-fluoropyrimidin-2-yl)amino)phenyl)-4-(2-(4-(4-(2,6-dioxopiperidin-3-yl)phenyl)piperazin-1-yl)ethyl)piperidine-1-carboxamide] | B (B is 0.3 to 0.5) | A (A is <0.2) | > 7.30
8 | O=C1CCC(Nc2ccc(N3CCN(CCC4CCN(NC(=O)c5ccc(Nc6ncc(F)c(Nc7ccc(C(=O)Nc8ccccc8Cl)cc7)n6)cc5)CC4)CC3)c(F)c2)C(=O)N1 (stereo not drawn) [Compound 55, N-(2-chlorophenyl)-4-((2-((4-((4-(2-(4-(4-((2,6-dioxopiperidin-3-yl)amino)-2-fluorophenyl)piperazin-1-yl)ethyl)piperidin-1-yl)carbamoyl)phenyl)amino)-5-fluoropyrimidin-4-yl)amino)benzamide] | A (A is <0.3) | A (A is <0.2) | > 7.30

Now from value to molecule, other results behind:

Row | luminescence value (Level) (Aurora kinase A (AURKA); 10 nM compound) | luminescence value (Level) (Aurora kinase A (AURKA); 100 nM compound) | SMILES | pIC50 (NCI-H446 cell line)
9 | A (A is <0.3) | A (A is <0.2) | O=C1CCC(c2ccc(N3CCN(CCC4CCN(NC(=O)c5ccc(Nc6ncc(F)c(Nc7ccc(C(=O)Nc8ccccc8Cl)cc7)n6)cc5)CC4)CC3)nc2)C(=O)N1 (stereo not drawn) [Compound 56, N-(2-chlorophenyl)-4-[[2-[4-[[4-[2-[4-[5-(2,6-dioxo-3-piperidyl)-2-pyridyl]piperazin-1-yl]ethyl]-1-piperidyl]carbamoyl]anilino]-5-fluoro-pyrimidin-4-yl]amino]benzamide] | > 7.30
10 | A (A is <0.3) | A (A is <0.2) | O=C1CCC(c2ccc(N3CCN(CCC4CCN(NC(=O)c5ccc(Nc6ncc(F)c(Nc7ccccc7Cl)n6)cc5)CC4)CC3)cc2)C(=O)N1 (stereo not drawn) [Compound 57, 4-((4-((2-chlorophenyl)amino)-5-fluoropyrimidin-2-yl)amino)-N-(4-(2-(4-(4-(2,6-dioxopiperidin-3-yl)phenyl)piperazin-1-yl)ethyl)piperidin-1-yl)benzamide] | 6.82 to 7.00
11 | A (A is <0.3) | A (A is <0.2) | O=C1CCC(c2ccc(N3CCN(CCC4CCN(NC(=O)c5ccc(Nc6ncc(F)c(Nc7ccccc7)n6)cc5)CC4)CC3)cc2)C(=O)N1 (stereo not drawn) [Compound 58, N-(4-(2-(4-(4-(2,6-dioxopiperidin-3-yl)phenyl)piperazin-1-yl)ethyl)piperidin-1-yl)-4-((5-fluoro-4-(phenylamino)pyrimidin-2-yl)amino)benzamide] | > 7.30
12 | A (A is <0.3) | A (A is <0.2) | C[C@H](CN1CCN(c2ccc(C3CCC(=O)NC3=O)cc2)CC1)C1CCN(NC(=O)c2ccc(Nc3ncc(F)c(Nc4ccc(C(=O)Nc5ccccc5Cl)cc4)n3)cc2)CC1 (stereo partly drawn) [Compound 63, N-(2-chlorophenyl)-4-((2-((4-((4-((2S)-1-(4-(4-(2,6-dioxopiperidin-3-yl)phenyl)piperazin-1-yl)propan-2-yl)piperidin-1-yl)carbamoyl)phenyl)amino)-5-fluoropyrimidin-4-yl)amino)benzamide] | > 7.30
13 | B (B is 0.3 to 0.5) | A (A is <0.2) | O=C1CCC(c2ccc(N3CCN(CCN4CC(NC(=O)c5ccc(Nc6ncc(F)c(Nc7ccc(C(=O)Nc8ccccc8Cl)cc7)n6)cc5)C4)CC3)cc2)C(=O)N1 (stereo not drawn) [Compound 65, N-(2-chlorophenyl)-4-((2-((4-((1-(2-(4-(4-(2,6-dioxopiperidin-3-yl)phenyl)piperazin-1-yl)ethyl)azetidin-3-yl)carbamoyl)phenyl)amino)-5-fluoropyrimidin-4-yl)amino) benzamide] | 7.00 to 7.30
